# Measured values reported in patent US20110177014A1, “EXTRACTS FROM PLANTS OF THE TSUGA GENUS AND USES THEREOF IN THE TREATMENT OF INFLAMMATION, IRRITATION AND/OR INFECTION” (BIOPHARMACOPAE DESIGN INTERNATIONAL INC., priority 2008, published 2011).
# Legend:
# Format in all cases: cell-based
# HUVECs = assay: Cord formation assay on Matrigel (angiogenesis); conditions: Homo sapiens, HUVEC
# Method: 60 μl Matrigel® was added to a 96-well plate flat bottom plate (Costar 3096) and incubated for 30 minutes at 37° C. in a 5% CO2 atmosphere. A mixture of HUVECs and Tsuga extract, or a positive control (Fumagillin or GM6001) were added to each well. HUVECs were prepared as suspensions of 2.5×10^5 cells per ml in EGM-2, then 500 μl of HUVECs preparation was mixed with 500 μl of 2× of the desired dilution of Tsuga extract or control drug and 200 μl were added to each well. Four dilutions of each extract were tested in duplicate. After 18-24 hours at 37° C. in 5% CO2, the cells had migrated and organized into cords. The number of cell junctions was counted in 3 randomly selected fields and the inhibition of cord formation is calculated as follows: [(A−B)/A]×100, where A is the average number of cell junctions per field in the control well and B is the average number of cell junctions per field in the treated wells.
# human skin fibroblasts = assay: Inhibition of contractile force of fibroblasts in collagen I gel; conditions: Skin fibroblast, read-out: inhibition of tractional force of fibroblasts
# Source text: The skin model comprises human skin fibroblasts imbedded in a collagen I matrix and provides an in vitro representation of dermal contraction resulting from tractional forces generated by fibroblasts. Partial or permanent dermal contraction can play a role in the formation of wrinkles. Thus, extracts capable of inhibiting the contractile force of fibroblasts, have the potential to provide a dermo-decontraction anti-ageing effect in the skin.
# The ability of the Tsuga extracts to inhibit the contractile force of fibroblasts was evaluated on human skin fibroblasts (Cascade Biologics, Portland, Oreg.). The cells were imbedded in a collagen I matrix to create a derm-like environment. Fibroblasts were grown in complete M106 to 80% confluence. Free-floating fibroblast-populated collagen gels were prepared in 24-well plates. 500 μl of gel contains 2.5 mg/ml of collagen I (rat tail, BD Biosciences, Bedford, Mass.), M106 5X, NaOH 0.7N; 1×10^5 cells and fetal bovine serum (FBS) at 20% (Wisent, St-Bruno, QC, Canada). The mix was kept on ice until distribution. The derm-like gels were allowed to polymerize for 1 hour at 37° C. in a humidified 5% CO2 atmosphere. After incubation, the gels were detached from the wells. […] Contraction was measured beginning at day 5. Contracting gels were digitally photographed and the gel areas were calculated using ImagePro software.
# human skin keratinocytes [1] = assay: IL-8 release from keratinocytes (irritation potential), ELISA; conditions: 5 μM; basal level 18 pg/ml
# Method: This example provides results showing the non-irritating quality of the Tsuga extracts. The amount of interleukin-8 (IL-8) released in the following assay is used to quantify a possible irritating reaction after exposure of keratinocytes to the Tsuga extract.
# Release of IL-8 was evaluated on human skin keratinocytes (Cascade Biologics, Portland, Oreg., catalog number C-005) and measured using the Quantikine hIL8 ELISA kit (R&D Systems, Minneapolis, Minn., catalog number D8000C). Keratinocytes were first grown in a 96-well plate using complete medium M154 (M154+HKGS cat S-001 from Cascade Biologics). This medium was used as a negative (non-irritating) control, while 2.5 μM phorbol 12-myristate 13-acetate (PMA) (Sigma-Aldrich Canada, Oakville, Ontario) was used as a positive (irritating) control. All extracts and controls were diluted in complete medium M154. Cells were seeded into 96-well plates at a concentration of 8×10^3 cells/well in complete M154 medium and plates were incubated for 48 hours at 37° C. in a humidified 5% CO2 atmosphere. The medium was removed and 200 μl of Tsuga extract or control were added to the wells (all performed in duplicate) and then the plates were incubated for 48 hours at 37° C. in a humidified 5% CO2 atmosphere. […] The absorbance was read at 450 nm on the Spectrafluor Plus plate reader (Tecan). […]
# human skin keratinocytes [2] = assay: UVA-induced IL-1 release in keratinocytes, ELISA; conditions: UVA 20 J/cm^2
# Method: This example provides results showing the anti-inflammatory effect of Tsuga extracts when inflammation is induced in keratinocytes. The amount of interleukin-1 alpha (IL-1) released is used to quantify the inflammatory reaction after exposure of the keratinocytes to UVA light irradiation. IL-1 release was evaluated in human skin keratinocytes (Cascade Biologics, Portland, Oreg.) and was measured using the Quantikine hIL1 ELISA kit (R&D Systems, Minneapolis, Minn.). Keratinocytes were first grown in a 96-well plate using complete […] medium with different concentrations of extracts for 48 hours at 37° C. in a humidified 5% CO2 atmosphere. All extracts and controls were diluted in complete […] medium. Cells were rinsed with HBSS and irradiated with UVA at 20 J/cm^2. HBSS was removed and complete […] medium containing controls or extracts was added to respective wells. Plates were incubated for another 24 hours. ELISA was performed following the manufacturer's recommendations (R&D Systems). The absorbance was read at 450 nm on the Spectrafluor Plus plate reader (Tecan). […] The inhibition of IL-1 release is proportional to the anti-inflammatory effect.
smiles,measurement,setting,value
CO[C@@H]1[C@H](OC(=O)/C=C/C=C/C=C/C=C/C(=O)O)CC[C@]2(CO2)[C@H]1[C@@]1(C)O[C@@H]1CC=C(C)C [Fumagillin],inhibition at 15 µg/mL,HUVECs; 15 μg/ml,100%
CNC(=O)[C@H](Cc1c[nH]c2ccccc12)NC(=O)[C@@H](CC(=O)NO)CC(C)C [GM6001],inhibition at 25 µM,HUVECs; 25 μM,78%
same,inhibition at 50 µM,human skin fibroblasts,85%
"CCCCCCCCCCCCCC(=O)O[C@@H]1[C@@H](C)[C@@]2(O)[C@@H](C=C(CO)C[C@]3(O)C(=O)C(C)=C[C@@H]23)[C@@H]2C(C)(C)[C@]12OC(C)=O [PMA, phorbol 12-myristate 13-acetate]",IL-8 release,human skin keratinocytes [1],282 pg/mL
O=C(O)c1ccccc1O [salicylic acid],inhibition of IL-1 release,human skin keratinocytes [2]; 0.025%,11%
same,inhibition of IL-1 release,human skin keratinocytes [2]; 0.05%,27%
